The source made the active and inactive calls. The rule behind the calls is not given here.
Assays:
SK-OV-3 = assay: cells; details: Homo sapiens, SK-OV-3, 96 h, read-out: pGI50 (converted)
Description: Antiproliferative activity against human SKOV3 cells after 96 hrs by CellTiter Blue assay

[1] = Drug uptake in NCr nude mouse tumor xenografted with human SKOV3 cells at 20 mg/kg, po qd measured after 33 days; assay type: ADME, organism-based, Neoplasm; details: read-out: Drug uptake
WM 266-4 = assay: Anti-migratory activity against human WM266.4 cells at 1 to 1000 nM after 30 hrs by scratch-wound assay; assay type: functional, cell-based

## Cc1ccc(NC(=O)c2ccc3c(c2)OCCO3)cc1NC(=O)c1ccc2nc(OCCN3CCCCC3)ccc2c1
SK-OV-3
  GI50: 1.07 nM

## Cc1ccc(NC(=O)c2ccc3c(c2)OCCO3)cc1NC(=O)c1ccc2nc(OCCN3CCCC3)ccc2c1
[1]
  concentration at […]: 940 nM

## Cc1ccc(NC(=O)c2cccc3c2OCCO3)cc1NC(=O)c1ccc2nc(OCCN3CCCC3)ccc2c1
WM 266-4
  Activity: inactive

— ChEMBL document CHEMBL4000193, “Discovery of a Chemical Probe Bisamide (CCT251236): An Orally Bioavailable Efficacious Pirin Ligand from a Heat Shock Transcription Factor 1 (HSF1) Phenotypic Screen” (J Med Chem, 2017)
